Tests used:
[1] = biological target: Boletopsis leucomelas lectin (BLL); test: Frontal affinity chromatography (FAC) on immobilized BLL lectin column; assay type: binding; conditions: for affinity of BLL for pNP glycosides (in words): pNP-sugar chain 5 μM, FIG. 3(A) right
Method: (§1) It is preferable to use the frontal affinity chromatography (FAC) method for measuring the binding constant between lectin and sugar chain.
(§2) […] each of pyridylaminated sugar chains (PA-sugar chains) is continuously poured into two buffered lectin columns at a flow rate of 0.125 ml/min. The PA-sugar chain has been diluted to the concentration (2.5 nM) which is sufficiently lower than the dissociation constant (Kd) of a lectin in a buffer solution for analysis (10 mM Tris-HCl buffer solution (pH 7.4) containing 0.8% NaCl). Elution of the PA-sugar chain from the column is detected with use of a fluorescence detector (with exciting wavelength/fluorescence wavelength: 310 nm/380 nm).
(§3) Then, the binding constant (Ka) between the sugar chain and the lectin is determined from V-V0 and Bt based on the FAC reference equation.
(§4) BLL was dissolved in 0.2M NaHCO3 buffer solution (pH 8.3) containing 0.5M NaCl, and bound with NHS-activated Sepharose (GE Healthcare Bioscience, Uppsala, Sweden) according to the operation manual of the manufacturer. The lectin-Sepharose was suspended in 10 mM Tris-HCl buffer solution (pH 7.4, TBS buffer solution) containing 0.8% NaCl, and filled in a miniature column (+2 mm×10 mm, 31.4 μl). A GSL-II lectin column was prepared in a similar manner.
(§5) A frontal affinity chromatography was carried out with use of an FAC automated analysis system (FAC-1, Shimadzu Corporation). More specifically, the lectin column prepared as described above was inserted in a stainless holder and connected to the FAC-1 system.
(§6) The flow rate and column temperature were kept at 0.125 ml/min and 25 °C, respectively. […]
(§7) Eluates of pNP-sugar chain and PA-sugar chain were monitored by measuring UV (280 nm) and fluorescence (with the exciting wavelength 310 nm and the fluorescence wave length 380 nm). A front end eluate (i.e., V-V0) was measured with respect to a standard oligosaccharide (PA-lactose). In addition, the dissociation constant (Kd) was determined from V-V0 and Bt based on the FAC reference equation. Note that the binding constant Ka is determined by the equation Ka=1/Kd.
(§8) Analysis of the concentration dependency was carried out to measure the effective ligand concentration Bt. […] Next, V-V0 (the delay of the eluted front end) was calculated in accordance with the method developed by Arata (“Application of reinforced frontal affinity chromatography and advanced processing procedure to the study of the binding property of a Caenorhabditis elegans galectin”, J Chromatogr A. 905, 337-43). A Hofstee-type plot ((V-V0) vs. (V-V0) [A]0) was created, and Bt and Kd were respectively determined from the intercept and the slope of the approximate curve. […]

[2] = biological target: Griffonia simplicifolia lectin II (GSL-II) (Griffonia simplicifolia, UniProt Q41263); test: Frontal affinity chromatography (FAC) on immobilized GSL-II lectin column; assay type: binding; conditions: for affinity of GSL-II for pNP glycosides (in words): pNP-sugar chain 5 μM, FIG. 3(A) left
Method: as §1, §2, §3, §4, §5, §6, §7, §8

Griffonia simplicifolia lectin II (GSL-II), sequence (Q41263 entry or part of it): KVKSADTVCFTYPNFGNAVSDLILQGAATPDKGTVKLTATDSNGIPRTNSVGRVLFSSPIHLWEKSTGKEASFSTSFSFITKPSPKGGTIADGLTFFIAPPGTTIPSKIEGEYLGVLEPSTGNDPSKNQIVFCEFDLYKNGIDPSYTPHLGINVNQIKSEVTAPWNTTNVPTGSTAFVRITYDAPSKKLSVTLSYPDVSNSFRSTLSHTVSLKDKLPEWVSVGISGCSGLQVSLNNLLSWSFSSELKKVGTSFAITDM

Structure (SMILES) | Ka ([1]; pNP derivatives (5 μM), FAC, 25 C, TBS pH 7.4) | affinity of BLL for pNP glycosides (in words) [1] | Kd [2] | affinity of GSL-II for pNP glycosides (in words) [2] | binding relative to that of the other anomer ([2]; GSL-II, pNP glycosides)
CC(=O)N[C@H]1[C@@H](Oc2ccc([N+](=O)[O-])cc2)O[C@H](CO)[C@H](O)[C@@H]1O[C@@H]1O[C@H](CO)[C@H](O)[C@H](O)[C@H]1O [Galβ1-3GalNAcα-pNP, Galβ1-3 GalNAcα-pNP] | 90000 M⁻¹ | remarkable affinity | – | – | –
CC(=O)N[C@H]1[C@@H](Oc2ccc([N+](=O)[O-])cc2)O[C@H](CO)[C@@H](O)[C@@H]1O [GlcNAcα-pNP] | – | did not show remarkable affinity | 7.14 µM | strongest affinity | –
CC(=O)N[C@H]1[C@H](Oc2ccc([N+](=O)[O-])cc2)O[C@H](CO)[C@@H](O)[C@@H]1O [GlcNAcβ-pNP] | – | did not show remarkable affinity | – | remarkable affinity | 1/7

Reference: patent publication US20090117599A1, “METHOD OF DETECTING SUGAR CHAINS HAVING GlcNAc TRANSFERRED BY GnT-V” (priority 2005, published 2009)
